Assay results from the kinase profiling compilation of Christmann-Franck et al. (2016).

Tests used:
Experiment in all cases: radiometric filter-binding kinase assay, Kinase HotSpot
Conditions in all cases: compound 0.5 µM; ATP 10 µM
[1] = target: PLK1 (human) (UniProt P53350)
[2] = target: DYRK1B (human) (UniProt Q9Y463)
[3] = target: CAMK2G (human) (UniProt Q13555)
[4] = target: PRKCB1 (human) (UniProt P05771)
[5] = target: SRMS (human) (UniProt Q9H3Y6)
[6] = target: CHEK2 (human) (UniProt O96017)
[7] = target: ADRBK1 (human) (UniProt P25098)
Sequence of ADRBK1 (human) (P25098 whole entry, looked up): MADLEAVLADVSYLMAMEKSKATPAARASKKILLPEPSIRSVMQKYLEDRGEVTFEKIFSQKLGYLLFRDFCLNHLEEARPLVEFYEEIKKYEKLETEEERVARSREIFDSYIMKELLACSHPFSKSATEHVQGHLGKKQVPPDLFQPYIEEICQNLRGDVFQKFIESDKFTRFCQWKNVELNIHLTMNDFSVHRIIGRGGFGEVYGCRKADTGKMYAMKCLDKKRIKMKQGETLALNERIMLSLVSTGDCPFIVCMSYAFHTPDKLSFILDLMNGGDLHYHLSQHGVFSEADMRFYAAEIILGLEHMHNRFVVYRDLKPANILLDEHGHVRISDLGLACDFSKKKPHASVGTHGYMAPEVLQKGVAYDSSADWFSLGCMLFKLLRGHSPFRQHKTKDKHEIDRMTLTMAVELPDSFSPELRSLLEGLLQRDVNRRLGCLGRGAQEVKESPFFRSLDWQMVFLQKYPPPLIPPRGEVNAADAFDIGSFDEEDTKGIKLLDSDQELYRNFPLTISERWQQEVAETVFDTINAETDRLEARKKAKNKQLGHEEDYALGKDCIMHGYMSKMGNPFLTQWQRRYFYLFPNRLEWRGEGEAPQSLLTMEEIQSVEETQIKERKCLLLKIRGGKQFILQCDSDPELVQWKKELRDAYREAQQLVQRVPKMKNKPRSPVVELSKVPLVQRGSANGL

[8] = target: FGFR4 (human) (UniProt P22455)
[9] = target: CSF1R (human) (UniProt P07333)
[10] = target: CDK3 CCNE1 (human) (UniProt Q00526+P24864)
[11] = target: ERBB4 (human) (UniProt Q15303)
[12] = target: NEK3 (human) (UniProt P51956)
[13] = target: NUAK1 (human) (UniProt O60285)
[14] = target: NEK4 (human) (UniProt P51957)
[15] = target: DYRK4 (human) (UniProt Q9NR20)
Sequence of DYRK4 (human) (Q9NR20 whole entry, looked up): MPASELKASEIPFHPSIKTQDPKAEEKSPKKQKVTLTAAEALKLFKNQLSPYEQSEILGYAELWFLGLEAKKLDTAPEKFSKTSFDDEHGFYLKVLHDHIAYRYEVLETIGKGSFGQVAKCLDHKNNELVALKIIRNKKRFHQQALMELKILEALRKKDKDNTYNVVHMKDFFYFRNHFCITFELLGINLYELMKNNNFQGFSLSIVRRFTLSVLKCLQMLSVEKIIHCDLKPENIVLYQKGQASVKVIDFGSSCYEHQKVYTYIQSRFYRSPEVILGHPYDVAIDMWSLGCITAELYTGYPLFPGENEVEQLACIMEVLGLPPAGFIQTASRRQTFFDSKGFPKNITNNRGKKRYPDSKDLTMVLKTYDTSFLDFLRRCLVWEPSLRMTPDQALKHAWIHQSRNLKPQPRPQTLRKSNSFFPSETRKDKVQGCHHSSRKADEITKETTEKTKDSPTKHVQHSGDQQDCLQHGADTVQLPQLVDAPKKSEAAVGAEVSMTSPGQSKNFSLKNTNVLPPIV

[16] = target: MAPK10 (human) (UniProt P53779)
[17] = target: TBK1 (human) (UniProt Q9UHD2)
[18] = target: EPHA8 (human) (UniProt P29322)
[19] = tested on: PRKCQ (human), Q04759 [P330L]
[20] = target: PDGFRA (human) (UniProt P16234)
[21] = target: CDK9 CCNK (human) (UniProt O75909+P50750)
Sequence of CDK9 CCNK (human) (O75909 whole entry, looked up): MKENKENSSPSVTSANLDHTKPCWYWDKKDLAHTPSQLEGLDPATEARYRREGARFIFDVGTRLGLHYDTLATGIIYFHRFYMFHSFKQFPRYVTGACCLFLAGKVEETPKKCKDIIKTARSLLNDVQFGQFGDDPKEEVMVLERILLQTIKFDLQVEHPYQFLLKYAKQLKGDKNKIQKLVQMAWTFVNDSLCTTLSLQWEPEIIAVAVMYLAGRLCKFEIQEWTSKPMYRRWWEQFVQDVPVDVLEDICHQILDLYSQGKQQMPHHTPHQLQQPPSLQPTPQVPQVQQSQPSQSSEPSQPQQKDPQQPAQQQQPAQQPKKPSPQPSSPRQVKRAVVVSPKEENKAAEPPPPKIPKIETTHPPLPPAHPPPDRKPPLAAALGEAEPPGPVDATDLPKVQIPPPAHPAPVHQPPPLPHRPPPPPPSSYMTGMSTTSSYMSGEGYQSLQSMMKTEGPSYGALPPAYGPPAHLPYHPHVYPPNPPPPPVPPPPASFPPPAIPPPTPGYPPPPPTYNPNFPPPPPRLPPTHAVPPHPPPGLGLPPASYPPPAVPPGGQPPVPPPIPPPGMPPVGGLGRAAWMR
Sequence of CDK9 CCNK (human) (P50750 whole entry, looked up): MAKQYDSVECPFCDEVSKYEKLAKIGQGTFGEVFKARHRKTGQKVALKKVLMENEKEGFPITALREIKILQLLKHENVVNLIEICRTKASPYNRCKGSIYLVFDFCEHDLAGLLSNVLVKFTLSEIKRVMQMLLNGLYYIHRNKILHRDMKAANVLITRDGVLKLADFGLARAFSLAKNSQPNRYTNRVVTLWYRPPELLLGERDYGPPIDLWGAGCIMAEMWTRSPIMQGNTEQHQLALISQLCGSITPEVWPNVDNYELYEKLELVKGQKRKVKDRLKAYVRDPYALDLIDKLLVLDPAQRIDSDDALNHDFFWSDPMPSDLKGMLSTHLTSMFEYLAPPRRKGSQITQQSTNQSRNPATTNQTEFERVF

[22] = target: CDK2 CCNE1 (human) (UniProt P24941+P24864)
[23] = target: MAP3K9 (human) (UniProt P80192)
[24] = target: TTK (human) (UniProt P33981)
[25] = target: GSK3B (human) (UniProt P49841)
Sequence of GSK3B (human) (P49841 whole entry, looked up): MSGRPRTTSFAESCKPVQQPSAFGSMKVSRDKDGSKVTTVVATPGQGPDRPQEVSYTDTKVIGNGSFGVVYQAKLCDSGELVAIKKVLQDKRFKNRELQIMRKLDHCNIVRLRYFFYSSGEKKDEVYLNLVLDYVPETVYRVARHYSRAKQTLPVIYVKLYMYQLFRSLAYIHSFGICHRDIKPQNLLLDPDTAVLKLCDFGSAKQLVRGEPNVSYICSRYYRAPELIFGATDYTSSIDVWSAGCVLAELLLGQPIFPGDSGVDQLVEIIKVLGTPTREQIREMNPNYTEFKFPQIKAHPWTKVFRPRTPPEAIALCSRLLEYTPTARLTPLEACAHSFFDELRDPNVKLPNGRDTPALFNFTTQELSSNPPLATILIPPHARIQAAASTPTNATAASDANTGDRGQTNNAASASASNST

[26] = target: GRK7 (human) (UniProt Q8WTQ7)
[27] = target: TGFBR1 (human) (UniProt P36897)
Sequence of TGFBR1 (human) (P36897 whole entry, looked up): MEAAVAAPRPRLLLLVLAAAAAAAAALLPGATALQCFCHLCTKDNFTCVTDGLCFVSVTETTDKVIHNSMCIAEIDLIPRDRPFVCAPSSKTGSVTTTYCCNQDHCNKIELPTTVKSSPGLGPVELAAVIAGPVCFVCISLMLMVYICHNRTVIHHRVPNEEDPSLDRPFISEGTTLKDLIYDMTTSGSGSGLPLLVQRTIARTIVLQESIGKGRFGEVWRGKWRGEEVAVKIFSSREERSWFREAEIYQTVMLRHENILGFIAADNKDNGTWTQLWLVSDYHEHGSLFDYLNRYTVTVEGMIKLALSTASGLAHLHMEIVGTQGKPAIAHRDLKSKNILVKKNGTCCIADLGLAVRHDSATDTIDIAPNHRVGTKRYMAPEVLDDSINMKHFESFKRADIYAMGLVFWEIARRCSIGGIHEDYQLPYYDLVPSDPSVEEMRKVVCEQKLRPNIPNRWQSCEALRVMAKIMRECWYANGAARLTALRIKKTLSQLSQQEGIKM

[28] = target: NEK6 (human) (UniProt Q9HC98)
[29] = target: MAP3K5 (human) (UniProt Q99683)
[30] = target: PRKCZ (human) (UniProt Q05513)
[31] = target: ACVR1 (human) (UniProt Q04771)
[32] = target: PRKCA (human) (UniProt P17252)
[33] = target: PHKG2 (human) (UniProt P15735)
Sequence of PHKG2 (human) (P15735 whole entry, looked up): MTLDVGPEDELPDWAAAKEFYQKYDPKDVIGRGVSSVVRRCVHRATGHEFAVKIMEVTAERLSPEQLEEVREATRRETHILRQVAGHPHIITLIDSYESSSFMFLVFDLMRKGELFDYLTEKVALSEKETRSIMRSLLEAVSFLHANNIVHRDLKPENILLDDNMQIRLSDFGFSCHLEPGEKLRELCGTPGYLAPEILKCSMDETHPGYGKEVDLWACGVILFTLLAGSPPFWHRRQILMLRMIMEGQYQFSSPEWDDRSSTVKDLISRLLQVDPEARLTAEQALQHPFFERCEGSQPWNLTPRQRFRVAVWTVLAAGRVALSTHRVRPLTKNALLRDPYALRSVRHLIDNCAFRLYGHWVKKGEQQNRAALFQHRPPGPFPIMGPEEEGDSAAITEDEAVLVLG

[34] = target: WNK3 (human) (UniProt Q9BYP7)
[35] = target: LRRK2 (human) (UniProt Q5S007)
[36] = target: ADRBK2 (human) (UniProt P35626)
[37] = target: NEK7 (human) (UniProt Q8TDX7)
[38] = target: PRKG2 (human) (UniProt Q13237)
[39] = target: CDK6 CCND1 (human) (UniProt Q00534+P24385)
[40] = target: MAPKAPK3 (human) (UniProt Q16644)
[41] = target: PTK6 (human) (UniProt Q13882)
[42] = target: MAP4K2 (human) (UniProt Q12851)
Sequence of MAP4K2 (human) (Q12851 whole entry, looked up): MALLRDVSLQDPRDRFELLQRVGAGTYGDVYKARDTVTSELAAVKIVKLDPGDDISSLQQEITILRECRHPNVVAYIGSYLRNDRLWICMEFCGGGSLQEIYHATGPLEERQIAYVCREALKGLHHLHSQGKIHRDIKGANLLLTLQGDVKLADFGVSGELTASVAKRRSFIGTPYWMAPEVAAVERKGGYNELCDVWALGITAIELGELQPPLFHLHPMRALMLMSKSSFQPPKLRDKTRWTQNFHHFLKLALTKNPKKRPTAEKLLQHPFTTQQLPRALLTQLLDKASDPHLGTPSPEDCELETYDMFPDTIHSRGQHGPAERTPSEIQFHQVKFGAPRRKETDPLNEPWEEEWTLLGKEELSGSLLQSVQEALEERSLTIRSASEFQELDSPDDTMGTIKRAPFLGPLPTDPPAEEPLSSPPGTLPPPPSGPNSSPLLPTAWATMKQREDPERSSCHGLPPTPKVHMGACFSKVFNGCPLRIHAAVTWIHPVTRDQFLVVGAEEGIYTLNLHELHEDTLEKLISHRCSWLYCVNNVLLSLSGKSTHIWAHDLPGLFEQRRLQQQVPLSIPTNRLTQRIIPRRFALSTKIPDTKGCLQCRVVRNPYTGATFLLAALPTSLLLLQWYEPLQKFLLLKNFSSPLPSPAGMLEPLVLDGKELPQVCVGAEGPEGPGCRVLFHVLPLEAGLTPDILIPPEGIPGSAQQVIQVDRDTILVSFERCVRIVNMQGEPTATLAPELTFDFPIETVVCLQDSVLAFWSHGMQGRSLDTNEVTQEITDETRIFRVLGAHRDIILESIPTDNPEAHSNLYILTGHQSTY

Sequence of SRMS (human) (Q9H3Y6 whole entry, looked up): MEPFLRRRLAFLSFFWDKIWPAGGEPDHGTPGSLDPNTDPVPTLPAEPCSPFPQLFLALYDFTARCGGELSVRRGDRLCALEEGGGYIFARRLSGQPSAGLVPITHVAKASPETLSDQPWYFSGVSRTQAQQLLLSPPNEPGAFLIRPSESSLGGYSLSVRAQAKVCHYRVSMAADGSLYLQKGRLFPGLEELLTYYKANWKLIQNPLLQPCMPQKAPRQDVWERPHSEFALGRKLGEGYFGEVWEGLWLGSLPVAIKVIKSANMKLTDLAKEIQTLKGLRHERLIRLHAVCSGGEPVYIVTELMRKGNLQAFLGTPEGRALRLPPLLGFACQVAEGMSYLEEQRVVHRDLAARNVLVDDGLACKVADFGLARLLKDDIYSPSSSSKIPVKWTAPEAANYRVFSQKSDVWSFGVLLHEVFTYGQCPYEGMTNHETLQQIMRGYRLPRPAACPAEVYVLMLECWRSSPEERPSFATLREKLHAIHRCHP

Q: How did the residual activity [1] turn out when `N#Cc1c[nH]c2c[nH]/c(=N\Cc3cccnc3)cc2/c1=N\c1ccc(F)c(Cl)c1` was run?
A: 92.6%

Q: What about the residual activity [2] of the same molecule?
A: 65.2%

Q: What about the residual activity [3] of the same molecule?
A: 91.2%

Q: And the residual activity [4]?
A: 104%

Q: And the residual activity [5]?
A: 104%

Q: And the residual activity [6]?
A: 90.5%

Q: And the residual activity [7]?
A: 95.7%

Q: And the residual activity [8]?
A: 92.6%

Q: What about the residual activity [9] of the same molecule?
A: 96.3%

Q: What about the residual activity [10] of the same molecule?
A: 95.6%

Q: And the residual activity [11]?
A: 72.6%

Q: What about the residual activity [12] of the same molecule?
A: 56%

Q: And the residual activity [13]?
A: 103%

Q: What about the residual activity [14] of the same molecule?
A: 71.7%

Q: And the residual activity [15]?
A: 84.4%

Q: What about the residual activity [16] of the same molecule?
A: 95%

Q: What about the residual activity [17] of the same molecule?
A: 83.4%

Q: And the residual activity [18]?
A: 91.2%

Q: What about the residual activity [19] of the same molecule?
A: 113%

Q: And the residual activity [20]?
A: 94.3%

Q: What about the residual activity [21] of the same molecule?
A: 97.3%

Q: What about the residual activity [22] of the same molecule?
A: 94.1%

Q: And the residual activity [23]?
A: 87.5%

Q: What about the residual activity [24] of the same molecule?
A: 99.1%

Q: What about the residual activity [25] of the same molecule?
A: 99.8%

Q: What about the residual activity [26] of the same molecule?
A: 95.5%

Q: And the residual activity [27]?
A: 99.6%

Q: What about the residual activity [28] of the same molecule?
A: 104%

Q: What about the residual activity [29] of the same molecule?
A: 106%

Q: And the residual activity [30]?
A: 93.9%

Q: What about the residual activity [31] of the same molecule?
A: 95.6%

Q: What about the residual activity [32] of the same molecule?
A: 89.7%

Q: What about the residual activity [33] of the same molecule?
A: 88.3%

Q: What about the residual activity [34] of the same molecule?
A: 92.4%

Q: What about the residual activity [35] of the same molecule?
A: 86.6%

Q: What about the residual activity [36] of the same molecule?
A: 100%

Q: And the residual activity [37]?
A: 102%

Q: What about the residual activity [38] of the same molecule?
A: 90.9%

Q: What about the residual activity [39] of the same molecule?
A: 92.2%

Q: What about the residual activity [40] of the same molecule?
A: 94%

Q: What about the residual activity [41] of the same molecule?
A: 84.1%

Q: And the residual activity [42]?
A: 72.2%

Q: How did the residual activity [1] turn out when `CN(C)c1ccc(/C=C2\C(=O)Nc3ccccc32)cc1` was run?
A: 103%

Q: And the residual activity [2]?
A: 106%

Q: What about the residual activity [3] of the same molecule?
A: 99.6%

Q: And the residual activity [4]?
A: 96.1%

Q: What about the residual activity [5] of the same molecule?
A: 97.9%

Q: And the residual activity [6]?
A: 91.6%

Q: And the residual activity [7]?
A: 101%

Q: And the residual activity [8]?
A: 97.4%

Q: And the residual activity [9]?
A: 77.5%

Q: And the residual activity [10]?
A: 98.7%

Q: What about the residual activity [11] of the same molecule?
A: 97.7%

Q: And the residual activity [12]?
A: 95.2%

Q: And the residual activity [13]?
A: 80.4%

Q: What about the residual activity [14] of the same molecule?
A: 102%

Q: And the residual activity [15]?
A: 94.8%

Q: What about the residual activity [16] of the same molecule?
A: 82.9%

Q: What about the residual activity [17] of the same molecule?
A: 98.4%

Q: What about the residual activity [18] of the same molecule?
A: 103%

Q: What about the residual activity [19] of the same molecule?
A: 104%

Q: What about the residual activity [20] of the same molecule?
A: 79.9%

Q: And the residual activity [21]?
A: 100%

Q: And the residual activity [22]?
A: 97.1%

Q: What about the residual activity [23] of the same molecule?
A: 90.2%

Q: And the residual activity [24]?
A: 99.7%

Q: And the residual activity [25]?
A: 111%

Q: And the residual activity [26]?
A: 100%

Q: And the residual activity [27]?
A: 96.7%

Q: And the residual activity [28]?
A: 96.9%

Q: And the residual activity [29]?
A: 99.4%

Q: What about the residual activity [30] of the same molecule?
A: 112%

Q: And the residual activity [31]?
A: 104%

Q: And the residual activity [32]?
A: 94.5%

Q: What about the residual activity [33] of the same molecule?
A: 95.9%

Q: And the residual activity [34]?
A: 98.1%

Q: What about the residual activity [35] of the same molecule?
A: 89.8%

Q: What about the residual activity [36] of the same molecule?
A: 98.9%

Q: What about the residual activity [37] of the same molecule?
A: 102%

Q: And the residual activity [38]?
A: 105%

Q: What about the residual activity [39] of the same molecule?
A: 101%

Q: What about the residual activity [40] of the same molecule?
A: 100%

Q: What about the residual activity [41] of the same molecule?
A: 98.8%

Q: What about the residual activity [42] of the same molecule?
A: 109%
